Here are results for one compound from patent US10329273B2, “Tetrazolone-substituted dihydropyridinone MGAT2 inhibitors” (BRISTOL-MYERS SQUIBB COMPANY, priority 2014, dated 2019).

The experiment concerns the target human MGAT-2 (Homo sapiens (Human), UniProt Q3SYC2). Description: MGAT LCMS assay. It is filed as biochemical. The conditions noted are these: human MGAT-2 membranes expressed in Sf9 cells; 100 μM 2-oleoylglycerol, 15 μM oleoyl-coenzyme A; read-out: h-MGAT LCMS IC50. As for the experimental part: The MGAT enzyme reactions were performed in Corning FALCON® 96-well polypropylene plates, in a total volume of 60 μL of 50 mM potassium phosphate buffer pH 7.4, containing a final concentration of 100 μM 2-oleoylglycerol, 15 μM oleoyl-coenzyme A and 0.0013 μg/μL human or mouse MGAT-2 or 0.0026 μg/μL rat recombinant MGAT-2 membranes expressed in Sf9 cells. Assay plates were run through a fully automated robotics system and shaken for 5 seconds every minute for a total 10 minutes. The reactions were then quenched with 120 μL of ice cold methanol containing 1 μg/mL 1,2-distearoyl-rac-glycerol as the internal standard. Plates were shaken for 2 minutes and spun down to remove protein precipitation. After the spin, samples were transferred to LC/MS compatible PCR plates. For LC/MS analysis, a ThermoFisher Surveyor pump, utilizing a Waters SYMMETRY® C8, 50×2.1 mm column, was used for the chromatography of enzyme products. The buffer system consists of 0.1% formic acid in water with a mobile phase consisting 0.1% formic acid in methanol. The shallow gradient is 90-100% mobile phase in 0.2 min with a total run time of 2.3 min. […]
The exemplified Examples disclosed below were tested in the MGAT2 in vitro assays described above and were found having MGAT2 inhibitory activity. Table 1 below lists human MGAT2 IC50 values measured for the following examples.

Chain of human MGAT-2 (Q3SYC2 whole entry): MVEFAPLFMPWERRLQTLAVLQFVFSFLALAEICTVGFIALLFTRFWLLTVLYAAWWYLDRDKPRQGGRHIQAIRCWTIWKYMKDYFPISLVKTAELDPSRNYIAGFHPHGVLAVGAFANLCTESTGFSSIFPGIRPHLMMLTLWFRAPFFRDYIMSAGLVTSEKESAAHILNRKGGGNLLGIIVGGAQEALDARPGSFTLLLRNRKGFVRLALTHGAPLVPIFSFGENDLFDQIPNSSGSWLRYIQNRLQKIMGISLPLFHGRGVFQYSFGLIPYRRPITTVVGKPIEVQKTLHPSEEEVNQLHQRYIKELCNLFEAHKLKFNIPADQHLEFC

On to `O=C1N[C@@](c2ccc(OCCCC(F)(F)F)cc2F)(C(F)(F)F)CC(c2ccn(CC3CCC3)n2)=C1n1nn[nH]c1=O` [Example 16], for which the IC50 was found to be 5 nM.
